Measured values from ChEMBL document CHEMBL1201862, “PubChem BioAssay data set” (2004).
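Compound exposure: 48 hours, 5 concentrations, 96-well plates. GI50: concentration for 50% inhibition of growth.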 Active and inactive are the calls of the source. No stated cut-off is given here; in the data, active = GI50 up to about 1.1 µM and inactive = higher.

Columns and labels:
Assay in all cases: growth of human tumour cells (NCI), 48 h
[1] = system: MDA-N
[2] = system: DMS-273
[3] = system: HOP-18
[4] = system: KM-20L2
[5] = system: M19-MEL
[6] = system: DLD-1
[7] = system: DMS-114
[8] = system: XF498

| Compound | GI50 [1] | GI50 [2] | GI50 [4] | GI50 [5] | GI50 [6] | GI50 [7] | also measured |
| --- | --- | --- | --- | --- | --- | --- | --- |
| CSc1ncc2c(C#N)c3[nH]c4ccccc4n3c(=O)c2n1 | 24.3 µM (inactive) | – | – | – | – | – | – |
| Cc1ccc(NC(=O)C(=O)CC(=O)c2c(C)[n+]([O-])c3ccccc3[n+]2[O-])cc1C | – | > 100 µM (inactive) | 91.8 µM (inactive) | 91.2 µM (inactive) | – | – | GI50 [3]: 48.9 µM (inactive) |
| C=CCCC1(C)CCCNC1=S (stereo unspecified) | – | > 100 µM (inactive) | > 100 µM (inactive) | – | > 100 µM (inactive) | > 100 µM (inactive) | GI50 [3]: > 100 µM (inactive); GI50 [8]: > 100 µM (inactive) |
| c1ccc(C2OCCO2)c(OCCOc2cc(OCCOc3ccccc3C3OCCO3)c(OCCOc3ccccc3C3OCCO3)cc2OCCOc2ccccc2C2OCCO2)c1 | – | 15.3 µM (inactive) | > 100 µM (inactive) | > 100 µM (inactive) | > 100 µM (inactive) | 11.8 µM (inactive) | GI50 [3]: > 100 µM (inactive) |
| Cc1cc2ncn(-c3nc4ccccc4nc3C(C#N)S(C)(=O)=O)c2cc1C (stereo unspecified) | – | > 100 µM (inactive) | > 100 µM (inactive) | > 100 µM (inactive) | > 100 µM (inactive) | > 100 µM (inactive) | GI50 [8]: > 100 µM (inactive) |
| O=C1NNC2NC(=O)C3(NN2C1=O)c1ccccc1-c1ccccc13 (stereo unspecified) | > 100 µM (inactive) | – | – | – | – | – | – |
| COc1ccc(/C=N/c2ccc(-c3nc4ccccc4[nH]3)cc2)cc1OC | > 100 µM (inactive) | – | – | – | – | – | – |
| O=C1NC2=NOC(=O)NC2=NO1 | > 200 µM (inactive) | – | – | – | – | – | – |
| CCN(CC)CCCCC1CCN(CC(=O)N2c3cc(Cl)ccc3NC(=O)CC2C)CC1 (stereo unspecified) | – | > 100 µM (inactive) | 40.9 µM (inactive) | > 100 µM (inactive) | > 100 µM (inactive) | – | GI50 [3]: > 100 µM (inactive) |
| Cn1c2c(c3ccccc31)CCN1C(=O)C34CCCC3CC21S4 (stereo unspecified) | > 100 µM (inactive) | – | – | – | – | – | – |
| O=C(O)/C(=C/c1c(O)ccc2ccccc12)c1csc(-c2nc(/C(=C\c3c(O)ccc4ccccc34)C(=O)O)cs2)n1 | – | – | 19.4 µM (inactive) | 6.17 µM (inactive) | 12 µM (inactive) | 10 µM (inactive) | – |
| O=CNc1cccc2c3c([nH]c12)CCCCCC3 | – | > 100 µM (inactive) | > 100 µM (inactive) | > 100 µM (inactive) | > 100 µM (inactive) | > 81.5 µM (inactive) | GI50 [3]: > 100 µM (inactive); GI50 [8]: > 77.1 µM (inactive) |
| COC(=O)C(Cc1ccccc1)NS(=O)(=O)c1ccc(-c2c3nc(c(-c4ccc(S(=O)(=O)NC(Cc5ccccc5)C(=O)OC)cc4)c4ccc([nH]4)c(-c4ccc(S(=O)(=O)NC(Cc5ccccc5)C(=O)OC)cc4)c4nc(c(-c5ccc(S(=O)(=O)NC(Cc6ccccc6)C(=O)OC)cc5)c5ccc2[nH]5)C=C4)C=C3)cc1 (stereo unspecified) | > 100 µM (inactive) | – | – | – | – | – | – |
| CC12CCCCC1=C(F)C(F)(F)S2 (stereo unspecified) | 21.9 µM (inactive) | – | – | – | – | – | – |
| C1=C(c2ccccc2)C(N2CCOCC2)Oc2ccccc21 (stereo unspecified) | 92.5 µM (inactive) | – | – | – | – | – | – |
| CC(=O)O[C@H]1C(=O)[C@@]2(C)[C@H]([C@H](OC(=O)C3CCCCC3)[C@]3(O)C[C@H](OC(=O)[C@H](O)[C@@H](NC(=O)OC(C)(C)C)c4ccccc4)C(C)=C1C3(C)C)[C@]1(OC(C)=O)CO[C@@H]1C[C@@H]2O | 0.00169 µM (active) | – | – | – | – | – | – |
| CC1=C(C#N)C23C(=O)c4ccccc4C(=O)C2=C(O)C=CC3(O)N1 (stereo unspecified) | 1.53 µM (inactive) | – | – | – | – | – | – |
| Cc1ccccc1NC(=O)C1C(=O)N(c2ccccc2C)C(=O)/C1=N\NC(N)=O (stereo unspecified) | – | > 100 µM (inactive) | > 100 µM (inactive) | > 100 µM (inactive) | > 100 µM (inactive) | > 100 µM (inactive) | GI50 [3]: 92.3 µM (inactive) |
| CC(C)(C)OC(=O)c1ccc(NCC2=C(Br)C(=O)C=CC2=O)cc1 | 20 µM (inactive) | – | – | – | – | – | – |
| CC(=O)OC1c2ccccc2CC2(OC(C)=O)c3ccccc3C12 (stereo unspecified) | > 100 µM (inactive) | – | – | – | – | – | – |
| CN(C)CCNCc1c2ccccc2c(CNCCN(C)C)c2ccccc12 | – | 34 µM (inactive) | 7.29 µM (inactive) | 24.5 µM (inactive) | 29.4 µM (inactive) | 26 µM (inactive) | GI50 [3]: 44.4 µM (inactive); GI50 [8]: 58.2 µM (inactive) |
| O=C1C=CC(=O)c2ncccc21 | 4.56 µM (inactive) | – | – | – | – | – | – |
| CCN(CC)CCNC(=O)c1ccc([N+](=O)[O-])cc1OC | – | > 100 µM (inactive) | > 100 µM (inactive) | > 100 µM (inactive) | > 100 µM (inactive) | > 100 µM (inactive) | – |
| C[C@H](CCC(=O)O)[C@H]1CC[C@H]2[C@@H]3C(=O)C[C@@H]4C[C@H](O)CC[C@]4(C)[C@H]3C[C@H](O)[C@]12C | > 100 µM (inactive) | – | – | – | – | – | – |
| COc1ccc(/C=C/C(=O)c2ccccc2)cc1OC | 4.13 µM (inactive) | – | – | – | – | – | – |
| Cc1cccc(-c2cc(O)c3ccc(C)nc3n2)c1 | 0.0283 µM (active) | – | – | – | – | – | – |
| Nc1nc(=O)n(C2OC(CO)C(O)C2O)cc1F (stereo unspecified) | – | 4.36 µM (inactive) | 2.29 µM (inactive) | 0.731 µM (active) | > 100 µM (inactive) | 0.0462 µM (active) | GI50 [3]: 2.44 µM (inactive); GI50 [8]: > 100 µM (inactive) |
| CO[C@H]1C[C@H](O[C@H]2CC[C@]3(C=O)[C@H]4CC[C@]5(C)[C@@H](C6=CC(=O)OC6)CC[C@]5(O)[C@@H]4CC[C@]3(O)C2)O[C@H](C)[C@H]1O [CYMARIN] | 0.136 µM (active) | – | – | – | – | – | – |
| COc1ccc(-c2oc3cc(O)cc(O)c3c(=O)c2OC)cc1 [ERMANIN] | 25.4 µM (inactive) | – | – | – | – | – | – |
